Assay results: patent publication US20130143929A1, “FUNGICIDAL IMIDAZOLES” (EI DU PONT DE NEMOURS AND COMPANY, priority 2010, published 2013)
Marks after values point to notes of the source that are not given here.

Experiments:
Format in all cases: in vivo
[1] = tested on: Puccinia recondite f. sp. tritici (the causal agent of wheat leaf rust); assay: Test A: wheat leaf rust, preventive spray on wheat seedlings, visual disease rating; details: wheat leaf rust, preventive spray on wheat seedlings; asterisk: 40 ppm test suspension
In short: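 Wheat seedlings were sprayed to run-off with compound suspended in acetone/water containing 250 ppm Trem 014 (200 ppm ≈ 800 g/ha; some at 40 ppm). Puccinia recondite spores were inoculated the next day. Plants were held 24 h saturated at 20° C, then 7 days at 20° C, and disease control was rated visually on a 0–100 scale against controls.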

[2] = tested on: Blumeria graminis f. sp. tritici (also known as Erysiphe graminis f. sp. tritici, the causal agent of wheat powdery mildew); assay: Test D: wheat powdery mildew, preventive spray on wheat seedlings, visual disease rating; details: wheat powdery mildew, preventive spray on wheat seedlings; asterisk: 40 ppm test suspension
In short: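 Compound suspended in acetone/water (50/50) with 250 ppm Trem 014 and sprayed to run-off on wheat seedlings (200 ppm ≈ 800 g/ha), then inoculated next day with spore dust. Disease rated visually after 8 days at 20 °C as % control relative to untreated plants (0-100).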

[3] = tested on: Septoria tritici (the causal agent of wheat leaf blotch); assay: Test B: wheat leaf blotch, preventive spray on wheat seedlings, visual disease rating; details: wheat leaf blotch, preventive spray on wheat seedlings; asterisk: 40 ppm test suspension
In short: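 Wheat seedlings sprayed to run-off with compound suspension (acetone/water with 250 ppm Trem 014; 200 ppm ≈ 800 g/ha, some at 40 ppm), inoculated next day with Septoria tritici spores. 48 h saturated humidity at 24 °C, then 19 days at 20 °C; visual rating, 100 = full control.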

[4] = tested on: Botrytis cinerea (the causal agent of tomato Botrytis); assay: Test C: tomato Botrytis, preventive spray on tomato seedlings, visual disease rating; details: tomato Botrytis, preventive spray on tomato seedlings; asterisk: 40 ppm test suspension
In short: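 Test suspension (acetone/water with 250 ppm Trem 014; 200 ppm equivalent to 800 g/ha) sprayed to run-off on tomato seedlings; B. cinerea spores inoculated next day. After 48 h saturated humidity at 20° C then 3 days at 24° C, disease rated visually as % control relative to untreated controls (0–100).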

SMILES	Test A rating (100 = 100% disease control, 0 = no disease control relative to the controls) [1]	Test D rating (100 = 100% disease control, 0 = no disease control relative to the controls) [2]	Test B rating (100 = 100% disease control, 0 = no disease control relative to the controls) [3]	Test C rating (100 = 100% disease control, 0 = no disease control relative to the controls) [4]
Cc1cccc(F)c1-n1c(C)nc(Cl)c1C(O)c1ccc(F)cc1F (stereo not drawn) [compound 339]	98* %	76* %	98* %	86* %
Cc1cccc(F)c1-n1c(C)nc(Cl)c1C(O)c1ccc(F)cc1Cl (stereo not drawn) [compound 340]	99* %	89* %	100* %	96* %
Cc1cccc(F)c1-n1c(C)nc(Br)c1C(O)c1ccc(F)cc1F (stereo not drawn) [compound 341]	94* %	43* %	100* %	86* %
Cc1cccc(F)c1-n1c(C)nc(Br)c1C(O)c1ccc(F)cc1Cl (stereo not drawn) [compound 342]	94* %	64* %	100* %	98* %
Cc1cccc(Cl)c1-n1c(C)nc(Br)c1C(O)c1ccc(F)cc1Cl (stereo not drawn) [compound 343]	96* %	69* %	100* %	84* %
Cc1cccc(Cl)c1-n1c(C)nc(Cl)c1C(O)c1ccc(F)cc1Cl (stereo not drawn) [compound 344]	99* %	72* %	95* %	54* %
COc1ccc(C(O)c2c(Cl)nc(C)n2-c2c(F)cc(F)cc2Cl)c(F)c1 (stereo not drawn) [compound 345]	100* %	35* %	100* %	99* %
COc1ccc(C(O)c2c(Br)nc(C)n2-c2c(F)cc(F)cc2Cl)c(F)c1 (stereo not drawn) [compound 347]	100* %	69* %	100* %	82* %
COc1ccc(C(O)c2c(Br)nc(C)n2-c2c(F)cc(F)cc2Br)c(F)c1 (stereo not drawn) [compound 348]	100* %	90* %	100* %	98* %
COc1ccc(C(O)c2c(Br)nc(C)n2-c2c(F)cc(F)cc2Cl)c(Cl)c1 (stereo not drawn) [compound 349]	100* %	90* %	100* %	98* %
COc1ccc(C(O)c2c(Cl)nc(C)n2-c2c(F)cc(F)cc2Cl)c(Cl)c1 (stereo not drawn) [compound 350]	100* %	98* %	100* %	98* %
COc1ccc(C(O)c2c(Br)nc(C)n2-c2c(F)cc(F)cc2Br)c(Cl)c1 (stereo not drawn) [compound 351]	100* %	95* %	100* %	90* %
